One series relates to Leishmania amazonensis. Description: Leishmanicidal activity against Leishmania amazonensis PH8 promastigotes after 48 hrs by spectrophotometric analysis. It counts as functional, organism-based. The settings on record: PH8, 48 h.
The nature of series [1]: Cytotoxicity against African green monkey Vero cells after 48 hrs by resazurin dye-based spectrophotometric analysis. It counts as cell-based. To be noted: chlorocebus sabaeus. (Resazurin is reduced to fluorescent resorufin, in cell work by metabolically active cells.)
A further series deals with Leishmania major. As to the kind of experiment: Leishmanicidal activity against Leishmania major MHOM/SU/1973/5-ASKH promastigotes after 48 hrs by cell counting method. It is filed as functional, organism-based.
Series [2] can be described thus: Log10 selectivity index, ratio of CC50 for African green monkey Vero cells to IC50 for Leishmania amazonensis PH8 promastigotes. To be noted: Vero cells versus Leishmania amazonensis PH8 promastigotes.

Converted amounts (≈) assume the structure as drawn.

Consider five compounds from ChEMBL document CHEMBL4261645, “Isolation, leishmanicidal evaluation and molecular docking simulations of piperidine alkaloids from Senna spectabilis” (Bioorg Med Chem, 2018).

As usually defined, the IC50 is the concentration that gives 50% inhibition. As usually defined, the CC50 is the concentration at which the toxic effect on the cells reaches its halfway point. Regarding `CC(=O)CCCCCCCCCCCC[C@H]1CC[C@@H](O)[C@@H](C)N1`, the IC50 worked out at 15.8 µg/mL (≈ 48.6 µM) in the series with Leishmania amazonensis and 24.9 µg/mL (≈ 76.5 µM) with Leishmania major. In series [1], this compound displayed a cytotoxic concentration (CC50) at 48 h of 66.7 µg/mL (≈ 205 µM). Moreover, the log10 selectivity index in series [2] was found to be 0.62.

On to `CC(=O)CCCCCCCCCCCC[C@H]1CC[C@@H](OC(C)=O)[C@@H](C)N1`, for which, in the series with Leishmania amazonensis, the IC50 was 25.9 to 26.3 µg/mL (≈ 70.6 to 71.6 µM). The compound further showed a cytotoxic concentration (CC50) at 48 h in series [1] of 255 to 274 µg/mL (≈ 694 to 744 µM). Moreover, in series [2], the log10 selectivity index was in the range of 0.99 to 1.02.

Take `CC(=O)CCCCCCCCCC[C@H]1CC[C@@H](OC(C)=O)[C@@H](C)N1`: in the series with Leishmania amazonensis, the IC50 lay within 30.2 to 30.7 µg/mL (≈ 89.1 to 90.5 µM). This compound also showed a CC50 at 48 h in series [1] of 357 to 361 µg/mL (≈ 1050 to 1060 µM). In addition, the log10 selectivity index in series [2] is 1.06 to 1.07.

The compound `C[C@@H]1[C@H](O)[C@@H](C)/C=C/C=C/C=C/C=C/C=C/C=C/C=C/[C@H](O[C@@H]2O[C@H](C)[C@@H](O)[C@H](N)[C@@H]2O)C[C@@H]2O[C@](O)(C[C@@H](O)C[C@@H](O)[C@H](O)CC[C@@H](O)C[C@@H](O)CC(=O)O[C@H]1C)C[C@H](O)[C@H]2C(=O)O` [AMPHOTERICIN B] gave an IC50 in the series on Leishmania amazonensis of 0.29 µg/mL (≈ 0.314 µM).

Consider `CC(=O)CCCCCCCCCC[C@H]1CC[C@@H](O)[C@@H](C)N1` [CASSINE], for which the IC50 turned out to be 25.2 µg/mL (≈ 84.6 µM) with Leishmania amazonensis and 1.6 µg/mL (≈ 5.38 µM) in the series on Leishmania major. In series [1], this compound returned a 50% cytotoxic concentration (CC50) at 48 h of 249 µg/mL (≈ 838 µM). For the same compound, in series [2], the log10 selectivity index worked out at 0.99.
